Publication PMC7187334 (Clinical Pharmacology in Drug Development, 2019)
Where two headings read alike, the source gives them in different places.

How the values were obtained:
[1] = Phase 1 crossover study: rosuvastatin plasma pharmacokinetics; assay type: in vivo, human; settings: for AUC(0-inf) / half-life / AUC(0-t) / Cmax: human, plasma, oral, 10 mg
Experimental: The primary objective was to evaluate the pharmacokinetics of oral rosuvastatin when administered alone and in combination with oral AZD5718. […] Each participant received 5 single-dose oral study treatments (A-E), with a minimum washout period of 7 days between each treatment period. Participants were randomly assigned to treatments in the order A, B, C, D, E or B, A, C, D, E. Treatments were: […] […] Participants fasted for at least 10 hours before treatment and for at least 4 hours after treatment. Participants receiving treatment E consumed a high-fat breakfast 30 minutes before treatment. Water was permitted as desired except within 1 hour of administration. […] Doses were taken with 240 mL of water. […] At a minimum, each analytical run included a calibration curve, a matrix blank, a control zero sample (matrix blank containing internal standard), a reagent blank, and duplicate quality control samples at 3 concentrations within the calibration range. […] Both assessments were well within the acceptance criteria. […] The pharmacokinetic analysis set for rosuvastatin included all participants who received both rosuvastatin treatments. […] Statistical analyses were performed by […] using SAS version 9.4. Rosuvastatin pharmacokinetics were analyzed using a mixed-effects model, with log-transformed AUC, AUC0-last, and Cmax as the response variables; treatment sequence, period, and treatment as fixed effects; and participant nested within treatment sequence as a random effect. […] LS mean differences and 90%CIs for the effect of formulation or food for log-transformed variables were back transformed to geometric mean ratios and presented as percentages with 90% CIs.

healthy volunteers = test: Phase 1 crossover study: safety and tolerability (adverse events); assay type: in vivo, human; settings: rosuvastatin 10 mg, fasted, n = 12
Experimental: Each participant received 5 single‐dose oral study treatments (A‐E), with a minimum washout period of 7 days between each treatment period.
The safety set included all participants who received treatment in the study and for whom any postdose safety data were available. Safety was assessed throughout the study by monitoring adverse events, vital signs (systolic and diastolic blood pressure, pulse rate, and body temperature), and electrocardiographic parameters and by conducting physical examinations and laboratory assessments (hematology, blood chemistry, and urinalysis).

[2] = design: method as in PMID 15116058; settings: coadministered with gemfibrozil; cited from earlier work
[3] = test system: patients with acute coronary syndrome; design: method as in PMID 20190281; settings: cited from earlier work
[4] = test system: patients with coronary artery disease; design: method as in earlier work; settings: cited from earlier work
[5] = test system: patients receiving statins; design: method as in PMID 28845751; settings: cited from earlier work
[6] = test system: patients with coronary artery disease; design: method as in PMID 28834471; settings: cited from earlier work

Molecule: CC(C)c1nc(N(C)S(C)(=O)=O)nc(-c2ccc(F)cc2)c1/C=C/[C@@H](O)C[C@@H](O)CC(=O)O [Rosuvastatin, rosuvastatin]
- Rosuvastatin AUC0-inf (relative bioavailability), ratio of geometric LS means ([1]; coadministered with AZD5718 200 mg vs alone, 90% CI 86%-116%): 100%
- Rosuvastatin AUC0-last, ratio of geometric LS means ([1]; coadministered with AZD5718 200 mg vs alone, 90% CI 87%-106%): 96%
- Rosuvastatin Cmax, ratio of geometric LS means ([1]; coadministered with AZD5718 200 mg vs alone, 90% CI 107%-146%): 125%
- Increase in rosuvastatin Cmax ([1]; coadministration with AZD5718 tablets vs alone): about 25%
- AUC(0-inf) ([1]; rosuvastatin 10 mg alone, fasted, n = 9, read-out: Rosuvastatin AUC0-inf, arithmetic mean (SD)): 45.3 ng·h/mL
- AUC(0-inf) ([1]; rosuvastatin 10 mg alone, fasted, n = 9, read-out: Rosuvastatin AUC0-inf, geometric mean (%CV)): 41 ng·h/mL
- half-life ([1]; rosuvastatin 10 mg alone, fasted, n = 9, read-out: Rosuvastatin t1/2 lambda z, arithmetic mean (SD) (converted)): 16 h
- half-life ([1]; rosuvastatin 10 mg alone, fasted, n = 9, read-out: Rosuvastatin t1/2 lambda z, geometric mean (%CV) (converted)): 14.7 h
- AUC(0-t) ([1]; rosuvastatin 10 mg alone, fasted, n = 12, read-out: Rosuvastatin AUC0-last, arithmetic mean (SD)): 54.2 ng·h/mL
- AUC(0-t) ([1]; rosuvastatin 10 mg alone, fasted, n = 12, read-out: Rosuvastatin AUC0-last, geometric mean (%CV)): 45.3 ng·h/mL
- Cmax ([1]; rosuvastatin 10 mg alone, fasted, n = 12, read-out: Rosuvastatin Cmax, arithmetic mean (SD)): 5.56 ng/mL
- Cmax ([1]; rosuvastatin 10 mg alone, fasted, n = 12, read-out: Rosuvastatin Cmax, geometric mean (%CV)): 4.59 ng/mL
- AUC(0-inf) ([1]; rosuvastatin 10 mg plus AZD5718 200-mg tablet, fasted, n = 10, read-out: Rosuvastatin AUC0-inf, arithmetic mean (SD)): 56.9 ng·h/mL
- AUC(0-inf) ([1]; rosuvastatin 10 mg plus AZD5718 200-mg tablet, fasted, n = 10, read-out: Rosuvastatin AUC0-inf, geometric mean (%CV)): 50.5 ng·h/mL
- half-life ([1]; rosuvastatin 10 mg plus AZD5718 200-mg tablet, fasted, n = 10, read-out: Rosuvastatin t1/2 lambda z, arithmetic mean (SD) (converted)): 16.4 h
- half-life ([1]; rosuvastatin 10 mg plus AZD5718 200-mg tablet, fasted, n = 10, read-out: Rosuvastatin t1/2 lambda z, geometric mean (%CV) (converted)): 16.5 h
- AUC(0-t) ([1]; rosuvastatin 10 mg plus AZD5718 200-mg tablet, fasted, read-out: Rosuvastatin AUC0-last, arithmetic mean (SD)): 49.4 ng·h/mL
- AUC(0-t) ([1]; rosuvastatin 10 mg plus AZD5718 200-mg tablet, fasted, read-out: Rosuvastatin AUC0-last, geometric mean (%CV)): 43.5 ng·h/mL
- Cmax ([1]; rosuvastatin 10 mg plus AZD5718 200-mg tablet, fasted, read-out: Rosuvastatin Cmax, arithmetic mean (SD)): 6.74 ng/mL
- Cmax ([1]; rosuvastatin 10 mg plus AZD5718 200-mg tablet, fasted, read-out: Rosuvastatin Cmax, geometric mean (%CV)): 5.74 ng/mL
- Rosuvastatin tmax, median (range) ([1]; rosuvastatin 10 mg alone, fasted, n = 12): 5.00 (0.50‐6.00) h
- Participants with influenza-like illness (healthy volunteers): 0 n (%)
- Increase in rosuvastatin AUC [2]: 2 fold
- Increase in rosuvastatin Cmax [2]: 2 fold

Molecule: C[C@H](C#Cc1ccc(Cc2ccc(F)cc2)s1)N(O)C(N)=O [VIA‐2291]
- Left ventricular ejection fraction ([3]; dose-dependent): improved left ventricular ejection fraction
- Appearance of new coronary lesions ([3]; phase 2): prevented the appearance of new coronary lesions
- Leukotriene B4 production ([3]; phase 2): reduced leukotriene B4 production
- Noncalcified plaque volume ([3]; phase 2): lowered noncalcified plaque volume

Molecule: CC(c1cc2ccccc2s1)N(O)C(N)=O (centres unmarked) [zileuton]
- Flow-mediated dilation in the brachial artery [4]: improved flow‐mediated dilation
- Leukotriene production [4]: reduced leukotriene production

Molecule: canakinumab: anti-interleukin-1β antibody
- Hazard ratio, recurrent cardiovascular events vs placebo ([5]; P = .021): 0.85
- Rate of recurrent cardiovascular events ([5]; canakinumab together with statins, placebo and statins 4.50): 3.90 events per 100 person‐years

B1: evolocumab: proprotein convertase subtilisin/kexin type 9-neutralizing antibody (antibody, chains of the INN, looked up, V domains shown)
VH: EVQLVQSGAEVKKPGASVKVSCKASGYTLTSYGISWVRQAPGQGLEWMGWVSFYNGNTNYAQKLQGRGTMTTDPSTSTAYMELRSLRSDDTAVYYCARGYGMDVWGQGTTVTVSS
VL: ESALTQPASVSGSPGQSITISCTGTSSDVGGYNSVSWYQQHPGKAPKLMIYEVSNRPSGVSNRFSGSKSGNTASLTISGLQAEDEADYYCNSYTSTSMVFGGGTKLTVL
- Hazard ratio, recurrent cardiovascular events vs placebo ([6]; P < .001): 0.85
- LDL cholesterol level, median ([6]; evolocumab together with statins): 30 mg/dL
- Rate of recurrent cardiovascular events ([6]; evolocumab together with statins, placebo 11.3%): 9.8%
